test system: PDE4; assay: Evaluation of PDE4 inhibition (scintillation proximity assay); assay type: biochemical; details: inhibition rate relative to control, test compound at 1 μM
Method in brief: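 PDE4 was incubated 120 min at room temperature with [3H]-cAMP and compound in 50 mM Tris-HCl pH 7.5, 8.3 mM MgCl2, 1.7 mM EDTA, 0.3 mg/mL BSA. Product captured on ZnSO4-containing YSi-SPA beads and counted; inhibition calculated against DMSO control after no-enzyme blank subtraction.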

Point of comparison: Cc1c(Cl)cc(-c2ccccn2)c2oc(N3CCNC[C@@H]3C)nc12 [Example 131, (S)-5-Chloro-4-methyl-2-(2-methylpiperazin-1-yl)-7-(pyridin-2-yl)benzoxazole], “PDE4 inhibitory activity (1 μM (%))” value 90%. Against it:
- Cc1cc(-c2ccccn2)c2oc(N3CCNC[C@@H]3C)nc2c1 [Example 114, (S)-5-methyl-2-(2-methylpiperazin-1-yl)-7-(pyridin-2-yl)benzoxazole] — lower, 77%
- Cc1cc(-c2nccs2)c2oc(N3CCNC[C@@H]3C)nc2c1 [Example 115, (S)-5-methyl-2-(2-methylpiperazin-1-yl)-7-(thiazol-2-yl)benzoxazole] — higher, 91%
- Cc1cc(-c2ncco2)c2oc(N3CCNC[C@@H]3C)nc2c1 [Example 116, (S)-5-methyl-2-(2-methylpiperazin-1-yl)-7-(oxazol-2-yl)benzoxazole] — lower, 80%
- C[C@H]1CNCCN1c1nc2c(C(F)(F)F)c(F)cc(-c3ccccn3)c2o1 [Example 117, (S)-5-Fluoro-2-(2-methylpiperazin-1-yl)-7-(pyridin-2-yl)-4-(trifluoromethyl)benzoxazole] — lower, 88%
- C[C@H]1CNCCN1c1nc2c(C(F)(F)F)c(F)cc(-c3nccs3)c2o1 [Example 118, (S)-5-Fluoro-2-(2-methylpiperazin-1-yl)-7-(thiazol-2-yl)-4-(trifluoromethyl)benzoxazole] — higher, 99%
- C[C@H]1CNCCN1c1nc2c(C(F)(F)F)c(F)cc(-n3cccn3)c2o1 [Example 119, (S)-5-Fluoro-2-(2-methylpiperazin-1-yl)-7-(1H-pyrazol-1-yl)-4-(trifluoromethyl)benzoxazole] — higher, 91%
- C[C@H]1CNCCN1c1nc2c(F)c(Cl)c(F)c(-c3ccccn3)c2o1 [Example 120, (S)-5-Chloro-4,6-difluoro-2-(2-methylpiperazin-1-yl)-7-(pyridin-2-yl)benzoxazole] — lower, 41%
- C[C@H]1CNCCN1c1nc2c(F)c(Cl)c(F)c(-c3nccs3)c2o1 [Example 121, (S)-5-Chloro-4,6-difluoro-2-(2-methylpiperazin-1-yl)-7-(thiazol-2-yl)benzoxazole] — lower, 62%
- C[C@H]1CNCCN1c1nc2c(F)c(F)c(F)c(-c3ccccn3)c2o1 [Example 122, (S)-4,5,6-Trifluoro-2-(2-methylpiperazin-1-yl)-7-(pyridin-2-yl)benzoxazole] — lower, 79%
- C[C@H]1CNCCN1c1nc2c(F)c(F)c(F)c(-c3nccs3)c2o1 [Example 123, (S)-4,5,6-Trifluoro-2-(2-methylpiperazin-1-yl)-7-(thiazol-2-yl)benzoxazole] — higher, 95%
- C[C@H]1CNCCN1c1nc2c(F)c(F)c(F)c(-n3cccn3)c2o1 [Example 124, (S)-4,5,6-Trifluoro-2-(2-methylpiperazin-1-yl)-7-(1H-pyrazol-1-yl)benzoxazole] — lower, 46%
- C[C@H]1CNCCN1c1nc2cc(C(F)(F)F)cc(-c3ccccn3)c2o1 [Example 125, (S)-2-(2-Methylpiperazin-1-yl)-7-(pyridin-2-yl)-5-(trifluoromethyl)benzoxazole] — higher, 91%
- C[C@H]1CNCCN1c1nc2cc(C(F)(F)F)cc(-c3nccs3)c2o1 [Example 126, (S)-2-(2-Methylpiperazin-1-yl)-7-(thiazol-2-yl)-5-(trifluoromethyl)benzoxazole] — higher, 95%
- C[C@H]1CNCCN1c1nc2cc(C(F)(F)F)cc(-c3ncco3)c2o1 [Example 127, (S)-2-(2-Methylpiperazin-1-yl)-7-(oxazol-2-yl)-5-(trifluoromethyl)benzoxazole] — the same, 90%
- C[C@H]1CNCCN1c1nc2c(F)c(Cl)cc(-c3ccccn3)c2o1 [Example 128, (S)-5-Chloro-4-fluoro-2-(2-methylpiperazin-1-yl)-7-(pyridin-2-yl)benzoxazole] — lower, 79%
- C[C@H]1CNCCN1c1nc2c(F)c(Cl)cc(-c3nccs3)c2o1 [Example 129, (S)-5-Chloro-4-fluoro-2-(2-methylpiperazin-1-yl)-7-(thiazol-2-yl)benzoxazole] — higher, 97%
- C[C@H]1CNCCN1c1nc2c(F)c(Cl)cc(-n3cccn3)c2o1 [Example 130, (S)-5-Chloro-4-fluoro-2-(2-methylpiperazin-1-yl)-7-(1H-pyrazol-1-yl)benzoxazole] — lower, 83%
- Cc1c(Cl)cc(-c2nccs2)c2oc(N3CCNC[C@@H]3C)nc12 [Example 132, (S)-5-Chloro-4-methyl-2-(2-methylpiperazin-1-yl)-7-(thiazol-2-yl)benzoxazole] — higher, 94%
- Cc1c(Cl)cc(-n2cccn2)c2oc(N3CCNC[C@@H]3C)nc12 [Example 133, (S)-5-Chloro-4-methyl-2-(2-methylpiperazin-1-yl)-7-(1H-pyrazol-1-yl)benzoxazole] — higher, 92%
- C[C@H]1CNCCN1c1nc2c(OC(F)(F)F)c(F)cc(-c3ccccn3)c2o1 [Example 134, (S)-5-Fluoro-2-(2-methylpiperazin-1-yl)-7-(pyridin-2-yl)-4-(trifluoromethoxy)benzoxazole] — lower, 88%
- C[C@H]1CNCCN1c1nc2c(OC(F)(F)F)c(F)cc(-c3nccs3)c2o1 [Example 135, (S)-5-Fluoro-2-(2-methylpiperazin-1-yl)-7-(thiazol-2-yl)-4-(trifluoromethoxy)benzoxazole] — higher, 99%
- C[C@H]1CNCCN1c1nc2c(OC(F)(F)F)c(F)cc(-n3cccn3)c2o1 [Example 136, (S)-5-Fluoro-2-(2-methylpiperazin-1-yl)-7-(1H-pyrazol-1-yl)-4-(trifluoromethoxy)benzoxazole] — the same, 90%
- Cc1c(Cl)cc2nc(N3CCNC[C@@H]3C)oc2c1-c1ccccn1 [Example 137, (S)-5-Chloro-6-methyl-2-(2-methylpiperazin-1-yl)-7-(pyridin-2-yl)benzoxazole] — lower, 33%
- Cc1c(Cl)cc2nc(N3CCNC[C@@H]3C)oc2c1-c1nccs1 [Example 138, (S)-5-Chloro-6-methyl-2-(2-methylpiperazin-1-yl)-7-(thiazol-2-yl)benzoxazole] — lower, 86%
- Cc1c(Cl)cc2nc(N3CCNC[C@@H]3C)oc2c1-n1cccn1 [Example 139, (S)-5-Chloro-6-methyl-2-(2-methylpiperazin-1-yl)-7-(1H-pyrazol-1-yl)benzoxazole] — lower, 39%
- COc1c(Cl)cc2nc(N3CCNC[C@@H]3C)oc2c1-c1ccccn1 [Example 140, (S)-5-Chloro-6-methoxy-2-(2-methylpiperazin-1-yl)-7-(pyridin-2-yl)benzoxazole] — lower, 35%
- COc1c(Cl)cc2nc(N3CCNC[C@@H]3C)oc2c1-c1nccs1 [Example 141, (S)-5-Chloro-6-methoxy-2-(2-methylpiperazin-1-yl)-7-(thiazol-2-yl)benzoxazole] — lower, 77%
- C[C@H]1CNCCN1c1nc2cc(Cl)c(C#N)c(-c3nccs3)c2o1 [Example 142, (S)-5-Chloro-6-cyano-2-(2-methylpiperazin-1-yl)-7-(thiazol-2-yl)benzoxazole] — lower, 86%
- C[C@H]1CNCCN1c1nc2c(C#N)c(Cl)cc(-c3nccs3)c2o1 [Example 143, (S)-5-Chloro-4-cyano-2-(2-methylpiperazin-1-yl)-7-(thiazol-2-yl)benzoxazole] — higher, 94%
- C[C@H]1CNCCN1c1nc2cc(F)c(C(F)(F)F)c(-c3nccs3)c2o1 [Example 144, (S)-5-Fluoro-2-(2-methylpiperazin-1-yl)-7-(thiazol-2-yl)-6-(trifluoromethyl)benzoxazole] — lower, 41%
- C[C@H]1CNCCN1c1nc2cc(Cl)cc(S(C)(=O)=O)c2o1 [Example 145, (S)-5-Chloro-2-(2-methylpiperazin-1-yl)-7-(methylsulfonyl)benzoxazole] — lower, 80%
- C[C@H]1CNCCN1c1nc2c(I)c(Cl)cc(-c3ccccn3)c2o1 [Example 146, (S)-5-Chloro-4-iodo-2-(2-methylpiperazin-1-yl)-7-(pyridin-2-yl)benzoxazole] — higher, 95%
- C[C@H]1CNCCN1c1nc2cc(Cl)c(I)c(-c3ccccn3)c2o1 [Example 147, (S)-5-Chloro-6-iodo-2-(2-methylpiperazin-1-yl)-7-(pyridin-2-yl)benz oxazole] — lower, 53%
- C[C@H]1CNCCN1c1nc2c(-c3ccccc3)c(Cl)cc(-c3ccccn3)c2o1 [Example 148, (S)-5-Chloro-2-(2-methylpiperazin-1-yl)-4-phenyl-7-(pyridin-2-yl)benzoxazole] — higher, 94%
- C[C@H]1CNCCN1c1nc2c(C3CC3)c(Cl)cc(-c3ccccn3)c2o1 [Example 149, (S)-5-Chloro-4-cyclopropyl-2-(2-methylpiperazin-1-yl)-7-(pyridin-2-yl)benzoxazole] — higher, 91%
- CSc1c(Cl)cc(-c2ccccn2)c2oc(N3CCNC[C@@H]3C)nc12 [Example 150, (S)-5-Chloro-2-(2-methylpiperazin-1-yl)-4-(methylthio)-7-(pyridin-2-yl)benzoxazole] — higher, 91%
- C[C@H]1CNCCN1c1nc2c(S(C)(=O)=O)c(Cl)cc(-c3ccccn3)c2o1 [Example 151, (S)-5-Chloro-2-(2-methylpiperazin-1-yl)-4-(methylsulfonyl)-7-(pyridin-2-yl)benzoxazole] — lower, 76%
- C[C@H]1CNCCN1c1nc2cc(Cl)c(Br)c(-c3ccccn3)c2o1 [Example 152, (S)-6-Bromo-5-chloro-2-(2-methylpiperazin-1-yl)-7-(pyridin-2-yl)benzoxazole] — lower, 68%
- COc1c(Cl)cc(-c2ccccn2)c2oc(N3CCNC[C@@H]3C)nc12 [Example 153, (S)-5-Chloro-4-methoxy-2-(2-methylpiperazin-1-yl)-7-(pyridin-2-yl)benzoxazole] — higher, 93%

Reference: patent publication US9890142B2, “PDE4 inhibitor” (Meiji Seika Pharma Co., Ltd., priority 2013, dated 2018)
